This note sets out measurements from DBAASP.

Values after ≈ are worked out from the molar mass of the structure shown.

Test systems include Klebsiella pneumoniae; Streptococcus pneumoniae; Staphylococcus aureus; Enterobacter cloacae; Citrobacter sp.; Serratia marcescens; Bacillus subtilis; Salmonella typhimurium; Candida albicans; Escherichia coli; Bacillus subtilis SMY; Streptococcus mutans; Pseudomonas putida; Saccharomyces cerevisiae; Cryptococcus neoformans; Vibrio cholerae PL91.
Holding throughout (assay): ≥ marks a high value that may be exact or a test limit, other limits are often not marked, values filed in µg/mL are converted to µM
Assay [1] concerns Acinetobacter baumannii ATCC 15308.
Assay [2] relates to Escherichia coli ATCC 25922.
The test system of assay [3] is Pseudomonas aeruginosa ATCC 15442.
Assay [4] relates to Staphylococcus aureus ATCC 25923.
The test system of assay [5] is Escherichia coli ATCC 23716.
Assay [6] concerns Bacillus cereus NCLM 2156.
Assay [7] relates to Pseudomonas aeruginosa ATCC 10145.
Assay [8] deals with Escherichia coli NCLM 2064.
For assay [9], the system named is Salmonella enterica subsp. enterica serovar Enteritidis ATCC 13076.
The subject of assay [10] is Pseudomonas aeruginosa ATCC 27853.
For assay [11], the system named is Staphylococcus aureus ATCC 29213.
For assay [12], the system named is Klebsiella pneumoniae ATCC 700603.
In assay [13] the test system is Bacillus cereus ATCC 11778.
In assay [14] the test system is Serratia marcescens ATCC 21202.
The test system of assay [15] is Streptococcus pyogenes ATCC 19615.

One may read the MIC as the lowest concentration that inhibits growth of the organism. Low readings indicate a more susceptible organism, high ones a less susceptible organism. Turning to `CC[C@H](C)[C@H](NC(=O)[C@H](CC(C)C)NC(=O)CNC(=O)CNC(=O)[C@H](CC(C)C)NC(=O)[C@@H](N)Cc1ccccc1)C(=O)N[C@@H](CCCCN)C(=O)N1CCC[C@H]1C(=O)N[C@@H](Cc1c[nH]c2ccccc12)C(=O)N[C@@H](Cc1c[nH]c2ccccc12)C(=O)N1CCC[C@H]1C(=O)N[C@@H](Cc1c[nH]c2ccccc12)C(=O)N[C@@H](CCCN=C(N)N)C(=O)N[C@@H](CCCN=C(N)N)C(N)=O` [FLGGLIKPWWPWRR], the MIC in the assay on Klebsiella pneumoniae is over 138 µM; against Streptococcus pneumoniae it was 17.2 µM (≈ 31.2 µg/mL); against Staphylococcus aureus it was 17.2 µM (≈ 31.2 µg/mL); in assay [1], at least 69 µM; in assay [2], 17.2 µM (≈ 31.2 µg/mL); in [3], at least 34.5 µM. Moreover, the minimal inhibitory concentration (MIC) was at least 138 µM with Enterobacter cloacae, 17.2 µM (≈ 31.2 µg/mL) in assay [4] and at least 138 µM against Citrobacter sp..
Take `CC(C)C[C@H](NC(=O)[C@H](CC(C)C)NC(=O)[C@H](CCCN=C(N)N)NC(=O)[C@H](Cc1cnc[nH]1)NC(=O)[C@@H](NC(=O)[C@H](CCCN=C(N)N)NC(=O)CNC(=O)[C@@H](NC(=O)[C@@H]1CCCN1C(=O)[C@@H](N)Cc1ccccc1)C(C)C)C(C)C)C(=O)N[C@@H](CCCN=C(N)N)C(=O)N[C@@H](CCCCN)C(=O)O` [FPVGRVHRLLRK]: the MIC against Serratia marcescens worked out at 21.7 µM (≈ 32 µg/mL); against Bacillus subtilis, 21.7 µM (≈ 32 µg/mL); in the assay with Streptococcus pneumoniae, 21.7 µM (≈ 32 µg/mL); against Staphylococcus aureus it was 21.7 µM (≈ 32 µg/mL); with Salmonella typhimurium it was 10.8 µM (≈ 16 µg/mL); in the assay with Candida albicans it was 21.7 µM (≈ 32 µg/mL). For the same compound, the minimal inhibitory concentration (MIC) is 21.7 µM (≈ 32 µg/mL) in the assay on Escherichia coli; at least 173 µM against Bacillus subtilis SMY; 21.7 µM (≈ 32 µg/mL) against Streptococcus mutans; at least 43.3 µM against Pseudomonas putida; at least 173 µM in assay [5]; at least 43.3 µM in the assay on Saccharomyces cerevisiae. This compound showed an MIC against Cryptococcus neoformans of at least 43.3 µM.
Regarding `CC[C@H](C)[C@H](NC(=O)CN)C(=O)NCC(=O)N[C@@H](CO)C(=O)N[C@@H](CCSC)C(=O)N[C@@H](CC(C)C)C(=O)N[C@@H](CC(C)C)C(=O)NCC(=O)N[C@@H](CC(C)C)C(=O)N[C@@H](C)C(=O)N[C@@H](CCCCN)C(=O)N[C@@H](CC(N)=O)C(=O)N[C@H](C(=O)NCC(=O)N[C@@H](CCSC)C(=O)N[C@@H](CO)C(=O)N[C@@H](CC(C)C)C(=O)N[C@@H](CC(C)C)C(=O)N[C@@H](CC(N)=O)C(=O)N[C@@H](CCCCN)C(=O)N[C@@H](C)C(=O)N[C@@H](CCC(N)=O)C(=O)N[C@H]1CSSC[C@@H](C(=O)O)NC(=O)[C@H](CCCCN)NC(=O)CNC(=O)[C@H](CO)NC(=O)[C@H]([C@@H](C)CC)NC(=O)[C@H](CCCCN)NC1=O)C(C)C` [GIGSMLLGLAKNVGMSLLNKAQCKISGKC], the minimal inhibitory concentration (MIC) in assay [6] was at least 51.1 µM; in assay [7], at least 34.1 µM; in the assay with Vibrio cholerae PL91 it was at least 51.1 µM; in assay [4] it was over 51.1 µM; in [8] it was 13.6 µM (≈ 40 µg/mL).
Turning to `CC(C)C[C@H](NC(=O)[C@H](CC(C)C)NC(=O)[C@H](CC(=O)O)NC(=O)[C@H](CC(N)=O)NC(=O)[C@H](CC(C)C)NC(=O)[C@H](CC(C)C)NC(=O)[C@H](CC(N)=O)NC(=O)CNC(=O)[C@@H](NC(=O)[C@H](CC(C)C)NC(=O)[C@@H]1CCCN1C(=O)[C@H](CC(C)C)NC(=O)[C@@H](N)C(C)C)C(C)C)C(=O)NCC(=O)N[C@@H](CCCCN)C(=O)O` [VLPLVGNLLNDLLGK], the MIC was at least 63.4 µM in [9]; over 63.4 µM in assay [10]; over 63.4 µM in [2]; over 63.4 µM in [11]; over 63.4 µM in assay [12]; at least 63.4 µM in assay [13]. In addition, the MIC in assay [14] and in assay [15] was at least 63.4 µM each time.
